Test [1] has as its target norepinephrine transporter (NET) (Rattus norvegicus, UniProt Q63380). As to the kind of experiment: biochemical. The test is classed as binding. To be noted: for inhibition at 10 µM: read-out: NET (% I@10 μM).
For test [2], the target named is serotonin transporter (5HTT) (Rattus norvegicus, UniProt P31652). As to the kind of experiment: Serotonin transporter binding ([^3 H]citalopram), NOVASCREEN
The conditions noted are these: for inhibition at 10 µM: read-out: 5HTT (% I@10 μM); for Ki: Table III, footnote d, read-out: 5HTT Ki value in nM (bracketed). The text has this: (§1) Serotonin (5-HTT), norepinephrine transporter (NET) and muscarinic m1 and m2 receptor binding data were provided by NOVASCREEN.

Test [3] has as its system dopamine uptake, rat caudate putamen. It is filed as biochemical. The conditions noted are these: Table V; rat caudate putamen; read-out: [^3 H]DA Uptake Inhibition IC50.
Test [4] has as its target T1, dopamine transporter (DAT) (Rattus norvegicus, UniProt P23977).
T1 construct: brains removed to an ice-cooled dish for dissection of the caudate putamen; from tissue; host or cells: rat caudate putamen, washed membranes of male Sprague-Dawley rats (Taconic)
To be noted: read-out: DAT Ki, nM (% error); cited from earlier work.

Test [5] has as its system locomotor activity in mice. As to the kind of experiment: Locomotor (ambulatory) activity. To be noted: i.p., FIGS. 5-8. The test is classed as in vivo, Swiss Webster mice. The text has this: Ambulatory activity of Male Swiss Webster mice (Taconic Farms) were studied in 40 cm^3 clear acrylic chambers. The acrylic chambers were placed inside monitors (Omnitech Electronics, Columbus, Ohio) that were equipped with light sensitive detectors, spaced 2.5 cm apart along two perpendicular walls. Mounted on the opposing walls were infrared light sources that were directed at the detectors. One count of horizontal activity was registered each time the subject interrupted two successive beams. Repetitive interruptions of the same beam due to behaviors, such as head bobbing or grooming, were not counted. Mice were injected and immediately placed in the apparatus for 60 min. Injections were administered i.p. in volumes of 1 mL/ 100 g. Each dose was studied in eight mice, and mice were used only once.
Horizontal activity counts are shown for the first 30 min of the session in which the maximal stimulation of activity was obtained. Each dose-effect curve was analyzed using standard analysis of variance (ANOVA) and post-hoc testing determine significance of effects at individual doses.

For test [6] the following is noted: animal models, literature; cited from earlier work.
Test [7] deals with T1, dopamine transporter (DAT). Kind of test: Displacement of [^3 H]WIN 35,428 binding (Dopamine Transporter Binding Assay). The conditions noted are these: Table III; displacement of [^3 H]WIN 35,428, rat caudate putamen; % error in parentheses.
The next test concerns the target T2, muscarinic m1 receptors (Rattus norvegicus, UniProt P08482).
T2 sequence (P08482 1-460): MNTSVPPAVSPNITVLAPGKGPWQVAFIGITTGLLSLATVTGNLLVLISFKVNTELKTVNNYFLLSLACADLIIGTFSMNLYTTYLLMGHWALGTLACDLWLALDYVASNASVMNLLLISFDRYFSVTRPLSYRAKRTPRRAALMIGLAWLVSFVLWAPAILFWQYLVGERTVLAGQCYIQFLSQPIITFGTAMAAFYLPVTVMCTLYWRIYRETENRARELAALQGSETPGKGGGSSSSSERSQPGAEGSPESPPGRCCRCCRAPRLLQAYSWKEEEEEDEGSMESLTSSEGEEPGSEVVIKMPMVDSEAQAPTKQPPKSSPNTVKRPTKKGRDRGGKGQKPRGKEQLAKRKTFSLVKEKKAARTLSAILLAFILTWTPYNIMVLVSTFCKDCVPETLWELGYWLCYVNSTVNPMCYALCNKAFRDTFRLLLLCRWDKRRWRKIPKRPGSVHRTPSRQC
Kind of test: biochemical. It is filed as binding. The conditions noted are these: for Ki: Table III, read-out: m1, Ki.

For another test, the target named is T3, muscarinic m2 receptors (Rattus norvegicus, UniProt P10980).
T3 sequence (P10980 1-466): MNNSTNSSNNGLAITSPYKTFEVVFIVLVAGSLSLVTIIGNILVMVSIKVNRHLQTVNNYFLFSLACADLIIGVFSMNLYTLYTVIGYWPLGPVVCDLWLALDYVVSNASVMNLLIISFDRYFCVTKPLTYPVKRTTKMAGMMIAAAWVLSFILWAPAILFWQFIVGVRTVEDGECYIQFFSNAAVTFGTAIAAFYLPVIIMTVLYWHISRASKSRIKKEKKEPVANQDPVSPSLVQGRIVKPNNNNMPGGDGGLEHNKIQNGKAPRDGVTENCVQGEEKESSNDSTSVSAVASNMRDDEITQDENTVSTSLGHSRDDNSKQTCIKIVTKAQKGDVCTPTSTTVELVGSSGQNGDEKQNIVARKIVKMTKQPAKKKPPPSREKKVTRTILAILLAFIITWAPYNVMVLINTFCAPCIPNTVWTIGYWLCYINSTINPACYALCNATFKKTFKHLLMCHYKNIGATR
Kind of test: Muscarinic m2 receptor binding ([^3 H]AFDX 384), NOVASCREEN
To be noted: Table III.
Description: as §1

Test [8] relates to norepinephrine transporter (NET). Kind of test: biochemical. To be noted: DAT vs. NET. The test is classed as binding.

Read-outs that look alike come from different tables or passages of the source. Some results are limits rather than exact numbers.

T1 sequence (P23977 whole entry): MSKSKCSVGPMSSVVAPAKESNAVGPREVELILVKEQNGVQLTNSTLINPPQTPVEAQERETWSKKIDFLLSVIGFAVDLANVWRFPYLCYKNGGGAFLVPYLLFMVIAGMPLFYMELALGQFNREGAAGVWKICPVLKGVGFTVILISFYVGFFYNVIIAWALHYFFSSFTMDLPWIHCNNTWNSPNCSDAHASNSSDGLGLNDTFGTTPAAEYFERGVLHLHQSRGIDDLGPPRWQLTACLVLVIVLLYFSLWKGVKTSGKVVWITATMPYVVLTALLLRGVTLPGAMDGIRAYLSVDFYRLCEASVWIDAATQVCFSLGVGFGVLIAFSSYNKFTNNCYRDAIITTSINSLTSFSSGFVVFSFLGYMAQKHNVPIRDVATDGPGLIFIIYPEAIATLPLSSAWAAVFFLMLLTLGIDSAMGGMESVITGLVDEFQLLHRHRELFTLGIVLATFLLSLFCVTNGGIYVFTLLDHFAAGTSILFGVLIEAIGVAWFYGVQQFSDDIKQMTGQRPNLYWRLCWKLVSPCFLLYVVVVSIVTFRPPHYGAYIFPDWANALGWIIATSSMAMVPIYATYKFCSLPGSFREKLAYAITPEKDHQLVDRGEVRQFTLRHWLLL
Chain of norepinephrine transporter (NET) (Rattus norvegicus, UniProt Q63380) (Q63380 1-617): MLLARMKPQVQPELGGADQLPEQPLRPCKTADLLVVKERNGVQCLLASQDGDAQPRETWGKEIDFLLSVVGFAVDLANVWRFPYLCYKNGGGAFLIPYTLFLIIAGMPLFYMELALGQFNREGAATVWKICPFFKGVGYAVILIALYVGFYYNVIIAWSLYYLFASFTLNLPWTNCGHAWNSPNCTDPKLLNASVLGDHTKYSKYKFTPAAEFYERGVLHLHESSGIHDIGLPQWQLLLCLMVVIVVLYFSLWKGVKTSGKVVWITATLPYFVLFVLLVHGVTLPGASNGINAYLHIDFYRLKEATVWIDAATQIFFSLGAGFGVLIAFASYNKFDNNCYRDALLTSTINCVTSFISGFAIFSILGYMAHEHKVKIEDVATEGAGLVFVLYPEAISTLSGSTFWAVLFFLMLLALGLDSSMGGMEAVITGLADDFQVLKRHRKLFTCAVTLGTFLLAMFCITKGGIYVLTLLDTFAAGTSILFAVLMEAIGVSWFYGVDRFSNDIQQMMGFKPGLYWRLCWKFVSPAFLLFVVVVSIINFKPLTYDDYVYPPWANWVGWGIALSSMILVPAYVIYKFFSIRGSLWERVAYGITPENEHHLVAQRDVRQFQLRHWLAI
Chain of serotonin transporter (5HTT) (P31652 whole entry): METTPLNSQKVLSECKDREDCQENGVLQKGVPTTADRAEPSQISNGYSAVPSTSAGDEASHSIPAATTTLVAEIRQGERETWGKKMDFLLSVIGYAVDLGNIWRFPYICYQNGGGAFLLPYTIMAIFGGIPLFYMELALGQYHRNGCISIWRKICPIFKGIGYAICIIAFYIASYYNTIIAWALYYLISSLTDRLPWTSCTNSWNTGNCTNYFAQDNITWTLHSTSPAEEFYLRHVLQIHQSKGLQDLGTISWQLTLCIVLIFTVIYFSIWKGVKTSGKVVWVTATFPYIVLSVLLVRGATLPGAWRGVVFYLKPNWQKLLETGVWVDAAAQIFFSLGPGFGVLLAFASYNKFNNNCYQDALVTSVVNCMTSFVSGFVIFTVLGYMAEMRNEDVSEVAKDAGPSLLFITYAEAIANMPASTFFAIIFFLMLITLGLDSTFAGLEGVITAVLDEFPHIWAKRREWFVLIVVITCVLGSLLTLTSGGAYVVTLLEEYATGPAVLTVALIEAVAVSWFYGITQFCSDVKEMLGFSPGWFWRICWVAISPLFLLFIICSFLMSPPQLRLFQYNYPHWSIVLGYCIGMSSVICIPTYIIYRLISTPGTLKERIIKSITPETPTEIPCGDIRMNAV

As a reminder, the IC50 is the concentration that gives 50% inhibition. One may read the Ki as the dissociation constant of the complex between target and ligand, obtained from inhibition or displacement. Consider `CN1[C@@H]2CC[C@H]1C[C@H](OC(c1ccccc1)c1ccc(Cl)cc1)C2` (stereo partly drawn) [Compound 10, 3β-4'-Chloro-(diphenylmethoxy)tropane], for which the inhibition at 10 µM in [1] was found to be 27.9%; in test [2], 37.2%. Also, the IC50 in test [3] was found to be 3520 nM. Moreover, in [4], the Ki was 854 nM.
Turning to `CN1[C@@H]2CC[C@H]1C[C@@H](OC(c1ccccc1)c1ccccc1)C2` [Compound 2, 3α-(diphenylmethoxy)-1αH,5αH-tropane], the “stimulation of locomotor activity” value in test [5] is “do not produce locomotor stimulant activity”. In addition, the CNS stimulatory activity entry in test [6] is reported as “exhibits CNS stimulatory activity in animal models”.
As to `CCc1ccc(C(O[C@H]2C[C@H]3CC[C@@H](C2)N3C)c2ccccc2)cc1` (some centres unmarked) [Compound 7q], the values for the Ki (in test [7]; at muscarinic m1 receptors; at muscarinic m2 receptors) were 520 nM, 12.6 nM and 703 nM, respectively. Besides, the figures for the inhibition at 10 µM in test [1] and in test [2] were 32.7% and 42.7%, respectively. Moreover, in test [3], the IC50 was 984 nM.
In the case of `Cc1ccc(C(O[C@H]2C[C@H]3CC[C@@H](C2)N3C)c2ccccc2)cc1` (some centres unmarked) [Compound 7p], the Ki in [7] came out at 187 nM; at muscarinic m1 receptors it was 2.7 nM; at muscarinic m2 receptors, 37.5 nM. The inhibition at 10 µM is 31.8% in [1] and 35.4% in test [2]. The IC50 in [3] stood at 512 nM.
Consider `CN1[C@@H]2CC[C@H]1C[C@@H](OC(c1ccc(F)cc1)c1ccc(F)cc1)C2` [Compound 7c, 4',4"-difluoro-3α-(diphenylmethoxy)tropane], for which the Ki in test [1] was > 8500 nM; in [1] (read-out: NET, Ki, Table IV), > 8500 nM; in test [2], > 2440 nM. Further, the results for the inhibition at 10 µM in test [1] and in [2] were 30% and 62%, respectively. Also, the “potency at dopamine transporter as compared to norepinephrine transporter” value in [8] is recorded as > 700 fold.
In the case of `CN1[C@@H]2CC[C@H]1C[C@@H](OC(c1ccccc1)c1ccc(O)cc1)C2` (stereo partly drawn) [Compound 7r, 3α-4'-Hydroxy-(diphenylmethoxy)tropane], the Ki in test [7] came out at 297 nM; on muscarinic m1 receptors, 2.1 nM; at muscarinic m2 receptors, 17.7 nM. Moreover, the inhibition at 10 µM in test [1] is 27.3%; in test [2] it was 23.3%. Also, the IC50 in test [3] was 677 nM.
In the case of `CN1[C@@H]2CC[C@H]1C[C@@H](OC(c1ccc(F)cc1)c1ccc(Cl)c(Cl)c1)C2` (some centres unmarked) [Compound 7l], the Ki in test [7] is 18.9 nM; in [1] it was > 9000 nM; in test [2], > 691 nM; at muscarinic m1 receptors, 33 nM; at muscarinic m2 receptors, 369 nM. Further, the inhibition at 10 µM in test [1] came out at 57.8%; in test [2], 80.3%. In addition, in test [3], the half-maximal inhibitory concentration (IC50) was 24 nM.
On to `CN1[C@@H]2CC[C@H]1C[C@@H](OC(c1ccccc1)c1ccc(C(F)(F)F)cc1)C2` (some centres unmarked) [Compound 7m], for which the Ki in test [7] is 635 nM; at muscarinic m1 receptors, 5.4 nM; at muscarinic m2 receptors it was 1510 nM. For the same molecule, the inhibition at 10 µM in test [1] came out at 34.6%; in test [2], 49.1%. The “selectivity for m1 over m2 sites” value at muscarinic m1 receptors (m1 vs. m2) is listed as ~300 fold. In test [3], the IC50 is 2160 nM.
In the case of `CN1[C@@H]2CC[C@H]1C[C@@H](OC(c1ccccc1)c1ccc(Cl)c(Cl)c1)C2` (some centres unmarked) [Compound 7k], the Ki in test [7] was 22.1 nM; in [1] (read-out: NET Ki value in nM (bracketed), Table III, footnote d), > 4870 nM; in test [2], > 1790 nM; at muscarinic m1 receptors it was 12.5 nM; at muscarinic m2 receptors, 141 nM. The inhibition at 10 µM is 56.5% in [1] and 66.2% in test [2]. For the same molecule, the IC50 in [3] turned out to be 47 nM.
